Columns and labels:
[1] = tested on: patients who have an acute COPD exacerbation; experiment: Clinical study in acute COPD exacerbation: patient disposition / discontinuation; type: in vivo; conditions: for Reason for discontinuation: Death: 2nd interim, 30 days of follow-up, Compound A N = 31, Prednisone N = 30; for Reason for discontinuation: Adverse Events: human, in vivo
Description: (§1) An exploratory, randomized, double-blind, placebo controlled, multi-center study to assess the efficacy, safety and tolerability of a single 75 mg dose of 3-[5-amino-4-(3-cyano-benzoyl)-pyrazol-1-yl]-N-cyclopropyl-4-methylbenzamide administered orally to patients who have an acute COPD exacerbation
(§2) The efficacy, safety and tolerability of a single 75 mg dose of 3-[5-amino-4-(3-cyano-benzoyl)-pyrazol-1-yl]-N-cyclopropyl-4-methylbenzamide (Compound A) administered orally to patients who have an acute COPD exacerbation was conducted.
(§3) 90 patients were randomized 1:1:1 to three treatment arms.
(§4) =single 75 mg dose of Compound A on day 1+prednisone placebo×10 days
(§5) =single dose of Compound A placebo on day 1+prednisone placebo×10 days
(§6) =single dose of Compound A placebo on day 1+40 mg oral prednisone […]×10 days
(§7) =doxycycline 100 mg dose×10 days or a non-macrolide antibiotic concurrent with local prescribing antibiotic guidelines.
(§8) Present data (at 2nd interim) includes total of 91 randomized patients with 30 days of follow-up.

[2] = tested on: patients who have an acute COPD exacerbation; experiment: Clinical study in acute COPD exacerbation: treatment failure composite endpoint; type: in vivo, human; conditions: retreatment with antibiotics, oral steroids, death, hospitalization or treatment indicating another exacerbation
Description: as §1, §2, §3, §4, §5, §6
=doxycycline 100 mg dose×10 days or a non-macrolide antibiotic concurrent with local prescribing antibiotic guidelines. […]

[3] = tested on: patients who have an acute COPD exacerbation; experiment: Clinical study in acute COPD exacerbation: dyspnea by Borg CR 10 scores; type: in vivo, human; set-up: AUC[days 2-14] in Borg CR 10 scores, Difference LS mean, Compound A - prednisone / AUC[days 2-14] in Borg CR 10 scores (adjusted for Day 1), LS mean / AUC[days 2-14] in Borg CR 10 scores, Difference LS mean, treatment - placebo: unit not given beside the values; conditions: for AUC[days 2-14] in Borg CR 10 scores (adjusted for Day 1), LS mean: per treatment arm; for AUC[days 2-14] in Borg CR 10 scores, Difference LS mean, treatment - placebo: versus placebo
Description: “BORG Score” as used herein refers to a measurement of dyspnea in accordance with the Borg scale. On that scale 0 represents no breathlessness at all and 10 represents maximum breathlessness.
as §1, §2, §3, §4, §5, §6, §7
(§9) Key efficacy endpoints: • FEV1 improvement from baseline at Day 5 • BORG Scores • EXACT PRO: • Recovery defined as reduction in EXACT score ≧9 points benchmarked against the maximum observed score (MOV: highest EXACT score using a 3-day rolling average) over the 14 day period following onset. • Time to recovery • Severity • Maximum severity—highest exact score over 30 days • Total severity—area under the curve from onset (i.e. Day 1) to recovery/Day 30 whichever comes first based on total exact score. • Duration of exacerbation (days from onset to recovery/Day 30) • Frequency of patients who recovered at Day 30 • Treatment failure: • Patients who were treated with oral corticosteroids, admitted to hospital to COPD related symptoms, changed in antibiotic therapy relating to COPD, or in the attending physicians opinion needed treatment for a further exacerbation.
LS is an abbreviation for least squares.

[4] = tested on: patients who have an acute COPD exacerbation; experiment: Clinical study in acute COPD exacerbation: safety and tolerability (adverse events); type: in vivo, human
Description: as §1, §2
Secondary objectives: Safety and tolerability, patient reported outcomes, and time to next exacerbation.
as §3, §4, §5, §6, §7
Initial hospitalization for COPD exacerbation at baseline was not recorded as a serious adverse event (SAE). Only subsequent admissions were recorded. […] No rash was noted. No unusual events or imbalances between treatment arms were noted.

[5] = tested on: patients who have an acute COPD exacerbation; experiment: Clinical study in acute COPD exacerbation: efficacy measured by FEV1; type: in vivo, human; conditions: for FEV1 change from baseline, Difference, Compound A v prednisone: single 75 mg oral Compound A v 40 mg oral prednisone x 10 days; for FEV1 change from baseline, Difference, Compound A v placebo: single 75 mg oral dose of Compound A, ANCOVA repeated measurements
Description: “Forced Expiratory Volume in One Second” or “FEV1” as used herein is the volume of air that can forcibly be blown out in one second, after full inspiration, which is measured by a spirometer. It is a measure of lung function or performance. Average values for FEV1 in healthy people depend mainly on sex and age. Values of between 80% and 120% of the average value are considered normal.
as §1, §2
Primary objective: Assess the efficacy of a single 75 mg dose of Compound A in COPD patients presenting with an exacerbation as measured by the improvement in FEV1 over the first 5 days of treatment relative to placebo.
as §3, §4, §5, §6, §7
Visits at Days 3, 5 and 14 and follow-up visits 30 and 90 days. End of study visit at 6 months.
as §8
Inclusion criteria for the study population were: • Males/females ≧40 to ≦80 years • GOLD stages 2 to 4 • Smoking history at least 10 pack years • Investigator defined COPD exacerbation
Exclusion criteria for the study population were: • Arterial blood pH <7.26 at randomization • History or presence of clinically uncontrolled left heart failure • Clinical or radiological evidence of pneumonia • Long term Oxygen >15 hours a day • History of clinically significant ECG abnormalities • History or presence of impaired renal function • Use of macrolide antibiotics within 48 hours of randomization
as §9
FEV1 change from baseline analysed with ANCOVA ([…]) model for repeated measurements. Estimated between patient standard deviation—200 ml.

[6] = Compound A N = 31, Prednisone N = 30

Question: How did the “Reason for discontinuation: Death” value [1] turn out when `Cc1ccc(C(=O)NC2CC2)cc1-n1ncc(C(=O)c2cccc(C#N)c2)c1N` [Compound A, 3-[5-Amino-4-(3-cyanobenzoyl)-pyrazol-1-yl]-N-cyclopropyl-4-methylbenzamide] was run?
Answer: 0 (0.0) n (%)

Question: And the “Reason for discontinuation: Adverse Events” value ([1]; 30 days)?
Answer: 0 (0.0) n (%)

Question: What about the “Treatment failures (composite endpoint)” value [2] of the same compound?
Answer: 0 patients

Question: And the “Breathlessness over 14 days compared with prednisone” value ([3]; over 14 days)?
Answer: on average less breathless

Question: What about the “AUC[days 2-14] in Borg CR 10 scores (adjusted for Day 1), LS mean” value ([3]; days 2-14) of the same compound?
Answer: 3.25

Question: What about the “AUC[days 2-14] in Borg CR 10 scores, Difference LS mean, treatment - placebo” value ([3]; days 2-14, adjusted for Day 1) of the same compound?
Answer: −0.23

Question: And the “AUC[days 2-14] in Borg CR 10 scores, Difference LS mean, Compound A - prednisone” value ([3]; versus prednisone, days 2-14, adjusted for Day 1)?
Answer: −0.36

Question: What about the “COPD adverse events” value ([4]; human, in vivo) of the same compound?
Answer: No COPD adverse events were observed

Question: And the “Number of subjects with AE: Abdominal pain upper” value ([4]; human, in vivo)?
Answer: 1 (3.2) n (%)

Question: And the “Number of subjects with AE: Any AE” value ([4]; human, in vivo)?
Answer: 8 (25.8) n (%)

Question: And the “Number of subjects with AE: COPD” value ([4]; human, in vivo)?
Answer: 0 (0.0) n (%)

Question: And the “Number of subjects with AE: Diarrhoea” value ([4]; human, in vivo)?
Answer: 1 (3.2) n (%)

Question: And the “Number of subjects with AE: Dizziness” value ([4]; human, in vivo)?
Answer: 2 (6.5) n (%)

Question: And the “Number of subjects with AE: Headache” value ([4]; human, in vivo)?
Answer: 1 (3.2) n (%)

Question: And the “Number of subjects with AE: Nasopharyngitis” value ([4]; human, in vivo)?
Answer: 1 (3.2) n (%)

Question: What about the “Number of subjects with AE: Nausea” value ([4]; human, in vivo) of the same compound?
Answer: 0 (0.0) n (%)

Question: And the “Number of subjects with AE: Occult blood” value ([4]; human, in vivo)?
Answer: 1 (3.2) n (%)

Question: And the “Number of subjects with AE: Vertigo” value ([4]; human, in vivo)?
Answer: 1 (3.2) n (%)

Question: What about the “Safety and tolerability” value ([4]; human, in vivo) of the same compound?
Answer: safe and well tolerated

Question: What about the “Improvement in FEV1 versus placebo and prednisone” value ([5]; Day 3) of the same compound?
Answer: greater improvement in FEV1

Question: And the “FEV1 change from baseline, Difference, Compound A v prednisone” value ([5]; Day 3)?
Answer: 102.28 mL

Question: What about the “FEV1 change from baseline, Difference, Compound A v placebo” value ([5]; Day 3) of the same compound?
Answer: 119.59 mL

Question: What about the “FEV1 change from baseline, Difference, Compound A v prednisone” value ([5]; Day 5) of the same compound?
Answer: 109.15 mL

Question: And the “FEV1 change from baseline, Difference, Compound A v placebo” value ([5]; Day 5)?
Answer: 46.56 mL

Question: And the “Patients who responded with >100 ml improvement (FEV1)” value ([5]; day 3, single 75 mg oral dose)?
Answer: 60%

Question: `C[C@]12C=CC(=O)C=C1CC[C@@H]1[C@@H]2C(=O)C[C@@]2(C)[C@H]1CC[C@]2(O)C(=O)CO` [Prednisone, prednisone, reference compound] was tested. Which “Reason for discontinuation: Death” value [1] did it give?
Answer: 2 (6.7) n (%)

Question: And the “Reason for discontinuation: Adverse Events” value [1]?
Answer: 0 (0.0) n (%)

Question: And the “AUC[days 2-14] in Borg CR 10 scores (adjusted for Day 1), LS mean” value ([3]; days 2-14)?
Answer: 3.61

Question: And the “AUC[days 2-14] in Borg CR 10 scores, Difference LS mean, treatment - placebo” value ([3]; days 2-14, adjusted for Day 1)?
Answer: 0.13

Question: What about the “Number of subjects with AE: Abdominal pain upper” value [4, 6] of the same compound?
Answer: 1 (3.3) n (%)

Question: And the “Number of subjects with AE: Any AE” value [4, 6]?
Answer: 12 (40.0) n (%)

Question: What about the “Number of subjects with AE: COPD” value [4, 6] of the same compound?
Answer: 5 (16.7) n (%)

Question: What about the “Number of subjects with AE: Diarrhoea” value [4, 6] of the same compound?
Answer: 0 (0.0) n (%)

Question: What about the “Number of subjects with AE: Dizziness” value [4, 6] of the same compound?
Answer: 0 (0.0) n (%)

Question: And the “Number of subjects with AE: Headache” value [4, 6]?
Answer: 3 (10.0) n (%)

Question: And the “Number of subjects with AE: Nasopharyngitis” value [4, 6]?
Answer: 1 (3.3) n (%)

Question: And the “Number of subjects with AE: Nausea” value [4, 6]?
Answer: 2 (6.7) n (%)

Question: What about the “Number of subjects with AE: Occult blood” value [4, 6] of the same compound?
Answer: 1 (3.3) n (%)

Question: What about the “Number of subjects with AE: Vertigo” value [4, 6] of the same compound?
Answer: 1 (3.3) n (%)

— patent US9339491B2, “Use of a pyrazole derivative in the treatment of acute exacerbations of chronic obstructive pulmonary disease” (Mereo BioPharma 1 Limited, priority 2012, dated 2016)
